In one test the test system is JNK phosphorylation. As to the kind of experiment: JNK Activation Assay (western blot), Panc-1. The format is cell-based, human. The settings on record: at 10 μM, Panc-1 pancreatic cancer cell line; starred symbols = activation. How it is done:
Protocol for JNK Activation Assay
This assay is referred to as the “JNK Activation Assay” throughout this application.
Cell lines: Human tumor-derived pancreatic cancer cell line Panc-1 (expressing KRas […] mutant) was purchased from American Type Culture Collection and grown in complete DMEM-High Glucose medium, supplemented with penicillin (100 U/mL), streptomycin (100 μg/mL), and 10% heat-inactivated FBS at 37° C. in a humidified incubator with 5% CO2.
Method 1: Cells were plated at 350000 cells/well density in a 12-well plate, allowed 3 hours to adhere to the plate, then starved in the appropriate medium in the presence of 0.5% FBS overnight. The small molecules to be tested were added to the cells in the final concentration of 10 μM in the presence of 0.3% DMSO for 6 hours incubation at 37° C. For IC50 value determination, serial dilutions of compounds were added to cells under the same conditions. Next, cells were stimulated with 1.5 ng/ml EGF for 15 minutes then cells were lysed with lysis buffer containing 1% Triton X-100, EDTA, and Halt™ Protease & Phosphatase Inhibitor Cocktail (Thermo Scientific). Protein concentration was assessed by BCA protein assay (Thermo Scientific). Phosphorylation level of JNK was determined by western blot.
Method 2: Cells were plated at 350000 cells/well density in a 12-well plate in the presence of 10% FBS. The next day small molecules to be tested were added to the cells in the final concentration of 10 μM in the presence of 0.3% DMSO for 6 hours incubation at 37° C. For IC50 value determination, serial dilutions of compounds were added to cells under the same conditions. Next, cells were lysed with lysis buffer containing 1% Triton X-100, EDTA, and Halt™ Protease & Phosphatase Inhibitor Cocktail (Thermo Scientific). Protein concentration was assessed by BCA protein assay (Thermo Scientific). Phosphorylation level of JNK was determined by western blot.
Western blot protocol: Equal amounts of protein (15-50 μg) were separated by SDS-PAGE and transferred to nitrocellulose membranes (Invitrogen by Thermo Fisher Scientific). The membrane was stained with Ponceau S Stain (Boston BioProducts) to verify uniform protein loading. Membranes were blocked with 10% milk and phosphorylation levels of JNK were assessed by incubating overnight at 4° C. with the antibody Phospho-SAPK/JNK (Thr183/Tyr185), from Cell Signaling Technology. Then the membranes were incubated with HRP-conjugated secondary antibody (Jackson Immunoresearch, West Grove, PA). Bands were incubated in Amersham ECL Prime Western Blotting Detection Reagent (GE Healthcare) and visualized using the ChemiDoc MP imaging system (Bio-Rad).
A general note: In western blotting, separated proteins are transferred to a membrane and probed.

Another test has as its target T1, Rheb (Homo sapiens, UniProt Q15382).
T1 construct: made in house
The test is described as follows: Rheb GTP Binding Domain Inhibition Assay. Conditions: read-out: Rheb: % inh. How it is done: Protocol for Cdc42 and Rheb GTP Binding Domain Inhibition Assay
The following method was developed as specific assay for cdc42 and Rheb proteins.
• 25 mM Tris-HCl, pH 7.4 • 27 mM KCl • 137 mM NaCl • 1 mM MgCl2 • 1 mM DTT Buffer-II: • 50 mM Tris-HCl, pH 7.0 • 1 mM MgCl2 • 1 mM DTT
The small GTPases proteins cdc42 and Rheb were expressed as His-tagged proteins. For the assay, the cdc42 and Rheb purified small GTPases proteins were diluted in Buffer-I or Buffer-II to a final concentration of 10-30 μg/mL. 200 μL of each diluted protein was added to a nickel-coated 96-well plate and incubated overnight at […]. Then the protein solution was discarded and 200 μL of Buffer-I or Buffer-II was added to each well in the presence of 1% DMSO. Compounds to be tested were added to the protein-coated wells at final concentration of 20 μM, and incubated for 3 hours at room temperature with and without 10-30 μg/mL of Sos added to the final hour of the incubation. When performing IC50 measurements a serial dilution of all tested concentrations was added. Then Cy3-GTP or Cy5-GTP was added to each well to a final concentration of 100 nM. The labeled GTP was incubated for 45 minutes at room temperature. Following GTP incubation, wells were washed 3× in Buffer-I or Buffer-II and 200 μL of Buffer-I or Buffer-II was added to each well. Following washes, the amount of bound labeled-GTP was measured using a SpectraMax M3 (Molecular Devices).

The structures appear in SMILES notation.

T1 sequence (Q15382 whole entry): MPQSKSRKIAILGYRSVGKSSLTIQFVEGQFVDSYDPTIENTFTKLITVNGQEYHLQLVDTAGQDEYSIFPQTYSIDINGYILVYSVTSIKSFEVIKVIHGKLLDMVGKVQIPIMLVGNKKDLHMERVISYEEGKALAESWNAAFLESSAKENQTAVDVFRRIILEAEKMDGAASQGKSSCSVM

With `CO[C@H]1CC[C@@H](Nc2nc(-c3ccccn3)nn3cc(-c4ccn(C(C)C)n4)c(C)c23)C1` (racemic) [Compound 9, rac 6-(1-Isopropyl-1H-pyrazol-3-yl)-N-((1R,3S)-3-methoxycyclopentyl)-5-methyl-2-(pyridin-2-yl)pyrrolo[2,1-f][1,2,4]triazin-4-amine], in the test on JNK phosphorylation, the “% inh of JNK in Panc-1” value was “F* (F* = 31-74% activation)”. In the case of `COc1cc(Nc2nc(-c3nccn3C)nn3cc(-c4ccn(C(C)C)n4)c(C)c23)ncn1` [Compound 6, 6-(1-Isopropyl-1H-pyrazol-3-yl)-N-(6-methoxypyrimidin-4-yl)-5-methyl-2-(1-methyl-1H-imidazol-2-yl)pyrrolo[2,1-f][1,2,4]triazin-4-amine], the inhibition at 20 µM on Rheb was 76 to 100%. Besides, the “% inh of JNK in Panc-1” value in the test with JNK phosphorylation is given as “H* (H* ≥ 100% activation)”. On to `Cc1c(-c2ccn(C(C)C)n2)cn2nc(-c3ccccn3)nc(O)c12` [Compound 8, 6-(1-Isopropyl-1H-pyrazol-3-yl)-5-methyl-2-(pyridin-2-yl)pyrrolo[2,1-f][1,2,4]triazin-4-ol], for which, in the test with JNK phosphorylation, the “% inh of JNK in Panc-1” value is reported as “E* (E* = 1-30% activation)”. Turning to `Cc1c(-c2ccn(C(C)C)n2)cn2nc(-c3nccn3C)nc(Nc3nccn3C)c12` [Compound 93, 6-(1-Isopropyl-1H-pyrazol-3-yl)-5-methyl-N,2-bis(1-methyl-1H-imidazol-2-yl)pyrrolo[2,1-f][1,2,4]triazin-4-amine], on Rheb, the inhibition at 20 µM fell in the range of 76 to 100%. Moreover, the “% inh of JNK in Panc-1” value in the test with JNK phosphorylation was “H* (H* ≥ 100% activation)”. Turning to `COc1ccnc(Nc2nc(-c3nccn3C)nn3cc(-c4ccn(C(F)F)n4)c(C)c23)n1` [Compound 95, 6-(1-(Difluoromethyl)-1H-pyrazol-3-yl)-N-(4-methoxypyrimidin-2-yl)-5-methyl-2-(1-methyl-1H-imidazol-2-yl)pyrrolo[2,1-f][1,2,4]triazin-4-amine], the inhibition at 20 µM on Rheb is 50 to 75%. Still for that read-out and setting: under `COc1cc(Nc2nc(-c3nccn3C)nn3cc(-c4ccccn4)c(C)c23)ncn1` [Compound 94, N-(6-Methoxypyrimidin-4-yl)-5-methyl-2-(1-methyl-1H-imidazol-2-yl)-6-(pyridin-2-yl)pyrrolo[2,1-f][1,2,4]triazin-4-amine] stands 26 to 49%.
